Earlier results, collected in patent US20200354441A1, “TREATMENT OF DISORDERS” (Apellis Pharmaceuticals, Inc., priority 2017, published 2020).
pIC50: −log10 of the molar value.

How the values were obtained:
[1] = system: complement activation (alternative pathway); conditions: alternative pathway-mediated erythrocyte lysis assay (WO2004/026328)
complement activation = conditions: relative to compstatin amidated at the C-terminus; published data (WO2004/026328, WO2007044668, Mallik 2005, Katragadda 2006)

pIC50 [1]	Compound	Activity over compstatin (complement activation) [× more]
4.92	CC[C@H](C)[C@H](N)C(=O)N[C@H]1CSSC[C@@H](C(=O)N[C@H](C(N)=O)[C@@H](C)O)NC(=O)[C@H](CCCN=C(N)N)NC(=O)[C@H](Cc2cnc[nH]2)NC(=O)[C@H](Cc2cnc[nH]2)NC(=O)CNC(=O)[C@H](Cc2c[nH]c3ccccc23)NC(=O)[C@H](CC(=O)O)NC(=O)[C@H](CCC(N)=O)NC(=O)[C@H](C(C)C)NC(=O)[C@H](C(C)C)NC1=O [Compstatin, H-ICVVQDWGHHRCT-CONH2]	–
–	Ac-ICVVQDWGHHRCT-CONH2 [Ac-compstatin]	3
–	Ac-ICVWQD(5fW)GAHRCT-CONH2 [Ac-V4W/W7(5fW)/H9A]	121
–	Ac-ICVWQDWGAHRCdT-COOH [Ac-V4W/H9A/T13dT -OH]	55
–	H-GICV(6fW)QD(6fW)GAHRCTN-COOH (6-fluoro-Trp, C-terminal acid) [+G/V4(6fW)/W7(6fW)H9A+N-OH]	126
